# From US8192962B2, “Processes for detecting toxic substances” (Daikin Industries, Ltd., priority 2001, dated 2012)
# Test system: Transport facilitation protein genes
# Assay: DNA chip mRNA expression in yeast, transport facilitation protein genes (Table 5)
# Format: cell-based, Saccharomyces cerevisiae S288C
# In short: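 S. cerevisiae S288C grown at 25° C in YPD were exposed in log phase for two hours to one toxic chemical at a growth-inhibiting, non-lethal concentration; untreated cells served as control. Poly(A) mRNA was reverse-transcribed with Cy3/Cy5-dUTP and hybridized to a whole-genome yeast DNA chip at 65° C for over 12 hours; values are fluorescence ratios versus untreated.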
smiles,measurement,setting,value
"Oc1cc(Cl)c(Cl)cc1Cl [(6), 2,4,5-trichlorophenol]",The level of expressed mRNA in the presence of chemical substance/The level of expressed mRNA in the absence of chemical substance,yeast gene YBL030C,1.1
same,The level of expressed mRNA in the presence of chemical substance/The level of expressed mRNA in the absence of chemical substance,yeast gene YBL099W,0.9
same,The level of expressed mRNA in the presence of chemical substance/The level of expressed mRNA in the absence of chemical substance,yeast gene YBR052C,2.1
same,The level of expressed mRNA in the presence of chemical substance/The level of expressed mRNA in the absence of chemical substance,yeast gene YBR068C,1.9
same,The level of expressed mRNA in the presence of chemical substance/The level of expressed mRNA in the absence of chemical substance,yeast gene YBR127C,1.1
same,The level of expressed mRNA in the presence of chemical substance/The level of expressed mRNA in the absence of chemical substance,yeast gene YBR132C,1.2
same,The level of expressed mRNA in the presence of chemical substance/The level of expressed mRNA in the absence of chemical substance,yeast gene YBR207W,1.6
same,The level of expressed mRNA in the presence of chemical substance/The level of expressed mRNA in the absence of chemical substance,yeast gene YBR293W,0.9
same,The level of expressed mRNA in the presence of chemical substance/The level of expressed mRNA in the absence of chemical substance,yeast gene YBR294W,1.2
same,The level of expressed mRNA in the presence of chemical substance/The level of expressed mRNA in the absence of chemical substance,yeast gene YBR298C,0.4
same,The level of expressed mRNA in the presence of chemical substance/The level of expressed mRNA in the absence of chemical substance,yeast gene YCL025C,0.9
same,The level of expressed mRNA in the presence of chemical substance/The level of expressed mRNA in the absence of chemical substance,yeast gene YCL038C,3.2
same,The level of expressed mRNA in the presence of chemical substance/The level of expressed mRNA in the absence of chemical substance,yeast gene YCR024C-A,1.2
same,The level of expressed mRNA in the presence of chemical substance/The level of expressed mRNA in the absence of chemical substance,yeast gene YCR037C,1.8
same,The level of expressed mRNA in the presence of chemical substance/The level of expressed mRNA in the absence of chemical substance,yeast gene YCR098C,1.6
same,The level of expressed mRNA in the presence of chemical substance/The level of expressed mRNA in the absence of chemical substance,yeast gene YDL128W,2.3
same,The level of expressed mRNA in the presence of chemical substance/The level of expressed mRNA in the absence of chemical substance,yeast gene YDL198C,0.8
same,The level of expressed mRNA in the presence of chemical substance/The level of expressed mRNA in the absence of chemical substance,yeast gene YDL210W,1.3
same,The level of expressed mRNA in the presence of chemical substance/The level of expressed mRNA in the absence of chemical substance,yeast gene YDL245C,1.1
same,The level of expressed mRNA in the presence of chemical substance/The level of expressed mRNA in the absence of chemical substance,yeast gene YDR038C,1.8
same,The level of expressed mRNA in the presence of chemical substance/The level of expressed mRNA in the absence of chemical substance,yeast gene YDR039C,1.1
same,The level of expressed mRNA in the presence of chemical substance/The level of expressed mRNA in the absence of chemical substance,yeast gene YDR086C,0.8
same,The level of expressed mRNA in the presence of chemical substance/The level of expressed mRNA in the absence of chemical substance,yeast gene YDR270W,2.2
same,The level of expressed mRNA in the presence of chemical substance/The level of expressed mRNA in the absence of chemical substance,yeast gene YDR298C,1.2
same,The level of expressed mRNA in the presence of chemical substance/The level of expressed mRNA in the absence of chemical substance,yeast gene YDR342C,1.1
same,The level of expressed mRNA in the presence of chemical substance/The level of expressed mRNA in the absence of chemical substance,yeast gene YDR343C,1.3
same,The level of expressed mRNA in the presence of chemical substance/The level of expressed mRNA in the absence of chemical substance,yeast gene YDR345C,1.2
same,The level of expressed mRNA in the presence of chemical substance/The level of expressed mRNA in the absence of chemical substance,yeast gene YDR387C,1.2
same,The level of expressed mRNA in the presence of chemical substance/The level of expressed mRNA in the absence of chemical substance,yeast gene YDR497C,0.6
same,The level of expressed mRNA in the presence of chemical substance/The level of expressed mRNA in the absence of chemical substance,yeast gene YEL027W,1.1
same,The level of expressed mRNA in the presence of chemical substance/The level of expressed mRNA in the absence of chemical substance,yeast gene YEL063C,1.3
same,The level of expressed mRNA in the presence of chemical substance/The level of expressed mRNA in the absence of chemical substance,yeast gene YEL065W,2.3
same,The level of expressed mRNA in the presence of chemical substance/The level of expressed mRNA in the absence of chemical substance,yeast gene YER053C,2.8
same,The level of expressed mRNA in the presence of chemical substance/The level of expressed mRNA in the absence of chemical substance,yeast gene YER119C,1.3
same,The level of expressed mRNA in the presence of chemical substance/The level of expressed mRNA in the absence of chemical substance,yeast gene YFL011W,1.0
same,The level of expressed mRNA in the presence of chemical substance/The level of expressed mRNA in the absence of chemical substance,yeast gene YFL041W,2.0
same,The level of expressed mRNA in the presence of chemical substance/The level of expressed mRNA in the absence of chemical substance,yeast gene YFL050C,0.9
same,The level of expressed mRNA in the presence of chemical substance/The level of expressed mRNA in the absence of chemical substance,yeast gene YFL054C,2.4
same,The level of expressed mRNA in the presence of chemical substance/The level of expressed mRNA in the absence of chemical substance,yeast gene YFL055W,1.1
same,The level of expressed mRNA in the presence of chemical substance/The level of expressed mRNA in the absence of chemical substance,yeast gene YGL006W,1.0
same,The level of expressed mRNA in the presence of chemical substance/The level of expressed mRNA in the absence of chemical substance,yeast gene YGL008C,1.9
same,The level of expressed mRNA in the presence of chemical substance/The level of expressed mRNA in the absence of chemical substance,yeast gene YGL104C,2.1
same,The level of expressed mRNA in the presence of chemical substance/The level of expressed mRNA in the absence of chemical substance,yeast gene YGL167C,2.0
same,The level of expressed mRNA in the presence of chemical substance/The level of expressed mRNA in the absence of chemical substance,yeast gene YGL255W,1.1
same,The level of expressed mRNA in the presence of chemical substance/The level of expressed mRNA in the absence of chemical substance,yeast gene YGR055W,1.1
same,The level of expressed mRNA in the presence of chemical substance/The level of expressed mRNA in the absence of chemical substance,yeast gene YGR065C,2.4
same,The level of expressed mRNA in the presence of chemical substance/The level of expressed mRNA in the absence of chemical substance,yeast gene YGR082W,1.1
same,The level of expressed mRNA in the presence of chemical substance/The level of expressed mRNA in the absence of chemical substance,yeast gene YGR096W,1.7
same,The level of expressed mRNA in the presence of chemical substance/The level of expressed mRNA in the absence of chemical substance,yeast gene YGR138C,0.8
same,The level of expressed mRNA in the presence of chemical substance/The level of expressed mRNA in the absence of chemical substance,yeast gene YGR191W,1.1
same,The level of expressed mRNA in the presence of chemical substance/The level of expressed mRNA in the absence of chemical substance,yeast gene YGR197C,0.5
same,The level of expressed mRNA in the presence of chemical substance/The level of expressed mRNA in the absence of chemical substance,yeast gene YGR224W,0.8
same,The level of expressed mRNA in the presence of chemical substance/The level of expressed mRNA in the absence of chemical substance,yeast gene YGR260W,0.9
